Assay results: patent US20240051958A1, “DIACYLGLYCEROL KINASE (DGK) ALPHA INHIBITORS AND USES THEREOF” (priority 2022, published 2024)

Tests used:
[1] = target: DGKA (Homo sapiens (Human), UniProt P23743); test: DGKA Inhibition ADP-Glo Assay; assay type: biochemical; conditions: 40 μM ATP, 200 μM DLG in substrate working solution, 25° C., 60 min
Method: The DGKA inhibition reactions were performed using ADP-Glo assay. The reactions were carried out in 50 mM HEPES, 100 mM NaCl, 10 mM MgCl2, 1 mM CaCl2, 0.005% TritonX-100 and 1 mM DTT as working solution (pH=7.5). 30 nL DMSO solution of each test compound (Top concentration 0.4 μM with 10 point, 4-fold dilution series for each compound) were transferred to 384 well plate by Echo and 5 μL DGKA (SignalChem, D21-10BG) enzyme working solution at 2×final reaction concentration was added to each well. After incubated at 25° C. for 15 minutes, 5 μL substrate working solution contain 40 μM ATP (Promega, V915B) and 200 μM DLG (SignalChem, D430-59) were added to initiate reaction. After enzymatic reaction at 25° C. for 60 min, ADP Glo assay reagents (Promega, V9102) were added and luminescence was recorded using an EnVision following the instruction of manual. […] The IC50 value was calculated via a regression analysis of the inhibition rate.

[2] = tested on: Human Pan T cells; test: IL-2 Release Detection Assay; assay type: cell-based; conditions: for Activation fold: Top activation/DMSO control; for Activation % at 100 nM: fitted curve at 100 nM/DMSO control*100%
Method: Add dilutions of compounds into the cells and incubate at 37° C. &5% CO2 for 24 hours. IL-2 in cell supernatant was detected by ELISA Kit (R&D, DY202). […] Top and Bottom: Plateaus in same units as Y. LogEC50: same log units as X. Activation fold: Top activation/DMSO control. Activation % at 100 nM: Activation of non-linear regression equation curve at the concentration of 100 nM/DMSO control*100%.

DGKA, sequence (P23743 whole entry): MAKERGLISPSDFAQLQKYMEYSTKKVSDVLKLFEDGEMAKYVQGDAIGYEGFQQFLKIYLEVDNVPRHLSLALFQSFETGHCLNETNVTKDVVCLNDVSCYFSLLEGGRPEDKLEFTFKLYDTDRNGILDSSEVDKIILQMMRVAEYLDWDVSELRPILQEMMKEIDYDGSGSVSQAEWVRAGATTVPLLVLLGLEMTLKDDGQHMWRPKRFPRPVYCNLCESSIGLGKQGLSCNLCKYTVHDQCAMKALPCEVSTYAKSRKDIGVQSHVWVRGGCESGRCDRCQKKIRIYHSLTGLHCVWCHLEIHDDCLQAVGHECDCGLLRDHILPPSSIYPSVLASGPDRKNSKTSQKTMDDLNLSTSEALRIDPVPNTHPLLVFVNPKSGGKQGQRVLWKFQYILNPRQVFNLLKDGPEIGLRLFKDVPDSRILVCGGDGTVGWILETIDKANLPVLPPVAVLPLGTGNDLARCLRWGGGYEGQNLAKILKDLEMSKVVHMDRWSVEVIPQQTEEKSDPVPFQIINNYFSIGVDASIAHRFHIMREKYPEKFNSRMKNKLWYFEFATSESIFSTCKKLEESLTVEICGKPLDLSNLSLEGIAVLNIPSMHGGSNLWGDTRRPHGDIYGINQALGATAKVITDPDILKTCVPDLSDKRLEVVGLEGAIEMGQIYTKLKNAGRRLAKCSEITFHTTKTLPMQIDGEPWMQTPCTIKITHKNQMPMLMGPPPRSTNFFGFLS

| Compound | IC50 [1] [nM] | Activation fold [2] | Activation % at 100 nM [2] [%] |
| --- | --- | --- | --- |
| Cc1ccc2oc(C3CCN(c4cc(=O)n(C)c5ccc(Cl)cc45)CC3)nc2c1 [Example 2, 6-chloro-1-methyl-4-(4-(5-methylbenzo[d]oxazol-2-yl)piperidin-1-yl)quinolin-2(1H)-one] | 0.47 | 5.3 | 234 |
| Cc1ccc2oc(C3CCN(c4cc(=O)n(C)c5ccc(C#N)cc45)CC3)nc2c1 [Example 3, 1-methyl-4-(4-(5-methylbenzo[d]oxazol-2-yl)piperidin-1-yl)-2-oxo-1,2-dihydroquinoline-6-carbonitrile] | 2.35 | 7.8 | 370 |
| Cc1ccc2oc(C3CCN(c4nc(=O)n(C)c5ccc(Cl)cc45)CC3)nc2c1 [Example 4, 6-chloro-1-methyl-4-(4-(5-methylbenzo[d]oxazol-2-yl)piperidin-1-yl)quinazolin-2(1H)-one] | 4.43 | 3.5 | 211 |
| Cc1ccc2oc(C3CCN(c4nc(=O)n(C)c5ccc(C#N)cc45)CC3)nc2c1 [Example 5, 1-methyl-4-(4-(5-methylbenzo[d]oxazol-2-yl)piperidin-1-yl)-2-oxo-1,2-dihydroquinazoline-6-carbonitrile] | 103 | – | – |
| Cc1ccc2oc(C3CCN(c4cc(=O)n(C)c5ccc(F)cc45)CC3)nc2c1 [Example 6, 6-fluoro-1-methyl-4-(4-(5-methylbenzo[d]oxazol-2-yl)piperidin-1-yl)quinolin-2(1H)-one] | 1.23 | – | – |
| Cc1ccc2oc(C3CCN(c4nc(=O)n(C)c5ccc(F)cc45)CC3)nc2c1 [Example 7, 6-fluoro-1-methyl-4-(4-(5-methylbenzo[d]oxazol-2-yl)piperidin-1-yl)quinazolin-2(1H)-one] | 16 | – | – |
| Cc1ccc2oc(N3[C@@H]4CC[C@H]3CN(c3c(C#N)c(=O)n(C)c5ccc(F)cc35)C4)nc2c1 [Example 8, 6-fluoro-1-methyl-4-((1R,5S)-8-(5-methylbenzo[d]oxazol-2-yl)-3,8-diazabicyclo[3.2.1]octan-3-yl)-2-oxo-1,2-dihydroquinoline-3-carbonitrile] | 7.74 | – | – |
| Cc1ccc2oc(C3CCN(c4c(C#N)c(=O)n(C)c5ccc(Cl)nc45)CC3)nc2c1 [Example 9, 6-chloro-1-methyl-4-(4-(5-methylbenzo[d]oxazol-2-yl)piperidin-1-yl)-2-oxo-1,2-dihydro-1,5-naphthyridine-3-carbonitrile] | 2.04 | 7.7 | 206 |
| Cc1ccc2oc(C3CCN(c4cc(=O)n(C)c5ccc(Cl)nc45)CC3)nc2c1 [Example 10, 6-chloro-1-methyl-4-(4-(5-methylbenzo[d]oxazol-2-yl)piperidin-1-yl)-1,5-naphthyridin-2(1H)-one] | 0.36 | 7.3 | 143 |
| Cn1c(=O)cc(N2CCC(c3nc4cc(F)ccc4o3)CC2)c2nc(Cl)ccc21 [Example 11, 6-chloro-4-(4-(5-fluorobenzo[d]oxazol-2-yl)piperidin-1-yl)-1-methyl-1,5-naphthyridin-2(1H)-one] | 0.66 | 6.1 | 169 |
| Cc1ccc2oc(C3CCN(c4nc(=O)n(C)c5ccc(Cl)nc45)CC3)nc2c1 [Example 13, 6-chloro-1-methyl-4-(4-(5-methylbenzo[d]oxazol-2-yl)piperidin-1-yl)pyrido[3,2-d]pyrimidin-2(1H)-one] | 4.11 | – | – |
| Cc1ccc2oc(C3CCN(c4nc(=O)n(C)c5ccc(C#N)nc45)CC3)nc2c1 [Example 14, 1-methyl-4-(4-(5-methylbenzo[d]oxazol-2-yl)piperidin-1-yl)-2-oxo-1,2-dihydropyrido[3,2-d]pyrimidine-6-carbonitrile] | 143 | – | – |
| COCCOc1cc2c(nc1Cl)c(N1CCC(c3nc4cc(C)ccc4o3)CC1)cc(=O)n2C [Example 15, 6-chloro-7-(2-methoxyethoxy)-1-methyl-4-(4-(5-methylbenzo[d]oxazol-2-yl)piperidin-1-yl)-1,5-naphthyridin-2(1H)-one] | 0.19 | 6.5 | 214 |
| COCCOc1cc2c(nc1C#N)c(N1CCC(c3nc4cc(C)ccc4o3)CC1)cc(=O)n2C [Example 16, 3-(2-methoxyethoxy)-5-methyl-8-(4-(5-methylbenzo[d]oxazol-2-yl)piperidin-1-yl)-6-oxo-5,6-dihydro-1,5-naphthyridine-2-carbonitrile] | 0.35 | 6.29 | 253 |
| Cc1ccc2oc(C3CCN(c4cc(=O)n(C)c5cc(NCCO)c(Cl)nc45)CC3)nc2c1 [Example 17, 6-chloro-7-((2-hydroxyethyl)amino)-1-methyl-4-(4-(5-methylbenzo[d]oxazol-2-yl)piperidin-1-yl)-1,5-naphthyridin-2(1H)-one] | 0.12 | 8.2 | 159 |
| Cc1ccc2oc(C3CCN(c4cc(=O)n(C)c5cc(NCCO)c(C#N)nc45)CC3)nc2c1 [Example 18, 3-((2-hydroxyethyl)amino)-5-methyl-8-(4-(5-methylbenzo[d]oxazol-2-yl)piperidin-1-yl)-6-oxo-5,6-dihydro-1,5-naphthyridine-2-carbonitrile] | 0.1 | 6.9 | 355 |
| Cc1ccc2oc(C3CCN(c4cc(=O)n(C)c5cc(NCCO)cnc45)CC3)nc2c1 [Example 19, 7-((2-hydroxyethyl)amino)-1-methyl-4-(4-(5-methylbenzo[d]oxazol-2-yl)piperidin-1-yl)-1,5-naphthyridin-2(1H)-one] | 2.36 | – | – |
| Cc1ccc2oc(C3CCN(c4cc(=O)n(C)c5cc(OC6CCOC6)c(Cl)nc45)CC3)nc2c1 (stereo not drawn) [Example 20, 6-chloro-1-methyl-4-(4-(5-methylbenzo[d]oxazol-2-yl)piperidin-1-yl)-7-((tetrahydrofuran-3-yl)oxy)-1,5-naphthyridin-2(1H)-one] | 0.13 | – | – |
| Cc1ccc2oc(C3CCN(c4cc(=O)n(C)c5cc(OC6CCOC6)c(C#N)nc45)CC3)nc2c1 (stereo not drawn) [Example 21, 5-methyl-8-(4-(5-methylbenzo[d]oxazol-2-yl)piperidin-1-yl)-6-oxo-3-((tetrahydrofuran-3-yl)oxy)-5,6-dihydro-1,5-naphthyridine-2-carbonitrile] | 0.23 | 10.1 | 520 |
| Cc1ccc2oc(C3CCN(c4cc(=O)n(C)c5cc(OCCO)c(Cl)nc45)CC3)nc2c1 [Example 22, 6-chloro-7-(2-hydroxyethoxy)-1-methyl-4-(4-(5-methylbenzo[d]oxazol-2-yl)piperidin-1-yl)-1,5-naphthyridin-2(1H)-one] | 0.15 | – | – |
| Cc1ccc2oc(C3CCN(c4cc(=O)n(C)c5cc(OCCCO)c(C#N)nc45)CC3)nc2c1 [Example 24, 3-(3-hydroxypropoxy)-5-methyl-8-(4-(5-methylbenzo[d]oxazol-2-yl)piperidin-1-yl)-6-oxo-5,6-dihydro-1,5-naphthyridine-2-carbonitrile] | 0.31 | 25.6 | 679 |
| Cc1ccc2oc(C3CCN(c4cc(=O)n(C)c5cc(OC6CCOCC6)c(C#N)nc45)CC3)nc2c1 [Example 25, 5-methyl-8-(4-(5-methylbenzo[d]oxazol-2-yl)piperidin-1-yl)-6-oxo-3-((tetrahydro-2H-pyran-4-yl)oxy)-5,6-dihydro-1,5-naphthyridine-2-carbonitrile] | 5.29 | – | – |
| Cc1ccc2oc(C3CCN(c4cc(=O)n(C)c5cc(OCCN)c(C#N)nc45)CC3)nc2c1 [Example 26, 3-(2-aminoethoxy)-5-methyl-8-(4-(5-methylbenzo[d]oxazol-2-yl)piperidin-1-yl)-6-oxo-5,6-dihydro-1,5-naphthyridine-2-carbonitrile] | 3.34 | – | – |
| Cc1ccc2oc(C3CCN(c4cc(=O)n(C)c5cc(OC6CCNC6)c(C#N)nc45)CC3)nc2c1 (stereo not drawn) [Example 27, 5-methyl-8-(4-(5-methylbenzo[d]oxazol-2-yl)piperidin-1-yl)-6-oxo-3-(pyrrolidin-3-yloxy)-5,6-dihydro-1,5-naphthyridine-2-carbonitrile] | 13.6 | – | – |
| Cc1ccc2oc(C3CCN(c4cc(=O)n(C)c5cc(O[C@H]6CCOC6)c(C#N)nc45)CC3)nc2c1 [Example 29, (S)-5-methyl-8-(4-(5-methylbenzo[d]oxazol-2-yl)piperidin-1-yl)-6-oxo-3-((tetrahydrofuran-3-yl)oxy)-5,6-dihydro-1,5-naphthyridine-2-carbonitrile] | 0.7 | 8.5 | 292 |
| Cc1ccc2oc(N3CC=C(c4cc(=O)n(C)c5cc(OCCO)c(C#N)nc45)CC3)nc2c1 [Example 30, 3-(2-hydroxyethoxy)-5-methyl-8-(1-(5-methylbenzo[d]oxazol-2-yl)-1,2,3,6-tetrahydropyridin-4-yl)-6-oxo-5,6-dihydro-1,5-naphthyridine-2-carbonitrile] | 0.65 | 11.0 | 244 |
